# “And” between values parts separate entries of the source, which are not always exact repeats. Equal entries are not always repeated. Numbers after ± are expanded uncertainties.
# Conditions: 101.33 kPa, Liquid; for mass density: Vibrating tube method; for viscosity: Capillary tube (Ostwald / Ubbelohde) method
SMILES,mass density (288.15 K),mass density (298.15 K),viscosity (308.05 K),mass density (308.15 K),mass density (318.15 K),viscosity (328.08 K),mass density (328.15 K),viscosity (288.17 K),viscosity (298.11 K),viscosity (318.06 K),other results
CCCCCC[n+]1ccn(C)c1.O=S(=O)([N-]S(=O)(=O)C(F)(F)F)C(F)(F)F,1381.3 ± 1.5 kg/m3,1372.2 ± 1.5 kg/m3,44.87 ± 0.94 mPa·s,1363 ± 1.5 kg/m3,1353.9 ± 1.4 kg/m3,21.92 ± 0.46 mPa·s and 21.92 ± 0.52 mPa·s,1344.9 ± 1.4 kg/m3,–,–,–,viscosity (288.19 K): 115.89 ± 2.8 mPa·s and 115.81 ± 3.1 mPa·s; viscosity (298.12 K): 69.47 ± 1.5 mPa·s and 69.62 ± 1.7 mPa·s; viscosity (308.11 K): 44.86 ± 1.1 mPa·s; viscosity (317.95 K): 30.77 ± 0.74 mPa·s; viscosity (318.07 K): 30.77 ± 0.65 mPa·s
CCCCn1cc[n+](C)c1.N#CN=C=[N-] [1-butyl-3-methylimidazolium dicyanamide],1066.9 ± 1.1 kg/m3,1060.5 ± 1.1 kg/m3,20.91 ± 0.44 mPa·s,1054.2 ± 1.1 kg/m3,1047.9 ± 1.1 kg/m3,11.55 ± 0.24 mPa·s,1041.7 ± 1.1 kg/m3,45.86 ± 0.96 mPa·s,30.15 ± 0.63 mPa·s and 30.15 ± 0.93 mPa·s,15.19 ± 0.32 mPa·s,viscosity (288.22 K): 45.82 ± 1.4 mPa·s; viscosity (308.12 K): 20.94 ± 0.64 mPa·s; viscosity (318.05 K): 15.21 ± 0.47 mPa·s; viscosity (328.05 K): 11.56 ± 0.36 mPa·s
CCCCCCCCCCCCCC[P+](CCCCCC)(CCCCCC)CCCCCC.N#C[N-]C#N [tetradecyl(trihexyl)phosphonium dicyanamide],903.4 ± 0.9 kg/m3,897.6 ± 0.9 kg/m3,210.07 ± 6.4 mPa·s,891.9 ± 0.9 kg/m3,886.3 ± 0.9 kg/m3,83.81 ± 1.9 mPa·s,880.7 ± 0.9 kg/m3,665.15 ± 30 mPa·s,362.9 ± 13 mPa·s,129.77 ± 3.3 mPa·s,viscosity (288.31 K): 664.13 ± 34 mPa·s; viscosity (298.07 K): 362.32 ± 16 mPa·s; viscosity (308.09 K): 210.09 ± 8.3 mPa·s; viscosity (318.01 K): 129.78 ± 4.6 mPa·s; viscosity (328.03 K): 83.95 ± 2.8 mPa·s

# Source: the NIST ThermoML archive (doi:10.1016/j.jct.2014.08.018)
